Assay results reported in publication PMC4919369, “A phase I study of the investigational NEDD8-activating enzyme inhibitor pevonedistat (TAK-924/MLN4924) in patients with metastatic melanoma” (Investigational New Drugs, 2016).
“And” between values parts separate entries of the source, which are not always exact repeats. Identical values can stand only once. “Also recorded” adds a separate entry of the source. Like-named read-outs stand apart in the source and are kept apart here.

What was measured:
[1] = tested on: patients with metastatic melanoma; test: Adverse events (NCI CTCAE v3.0) in the phase I study, safety population; format: in vivo
Description: (§1) Patients received pevonedistat as 1 h intravenous infusions either on Days 1, 4, 8, and 11 (schedule A) or on Days 1, 8, and 15 (schedule B, weekly dosing) of 21-day cycles. For schedule A, intermittent dosing on Days 1, 4, 8, and 11 was chosen to match the twice-weekly schedule of the proteasome inhibitor bortezomib. The starting dose of 50 mg/m^2 was selected based on the toxicities and the MTD observed in another phase I study that investigated pevonedistat administration on Days 1–5 of 21-day cycles in patients with advanced solid tumors. It was hypothesized that intermittent dosing – extending the dose over a 2-week period – would be better tolerated than the continuous dosing schedule, which was associated with severe hepatotoxicity. Schedule B, which was added subsequently through a protocol amendment, was based on the rationale that weekly bortezomib has similar efficacy and is more convenient than the twice-weekly schedule. […] Patients could receive pevonedistat until disease progression or unacceptable drug-related toxicity, up to a maximum of 12 months.
(§2) Adverse events (AEs) were graded using the National Cancer Institute’s Common Terminology Criteria for AEs version 3.0. Response was assessed using the modified RECIST guideline (v1.1). Computed tomography or magnetic resonance imaging scans were performed at screening, at the end of Cycle 2, and then every other cycle.

[2] = tested on: patients with metastatic melanoma; test: Dose escalation: DLTs and MTD determination (Bayesian continual reassessment method); format: in vivo; conditions: schedule A (Days 1, 4, 8, and 11 of 21-day cycles), 1 h intravenous infusion
Description: as §1
Dose escalation proceeded via a Bayesian continual reassessment method using 2-patient cohorts and 1.33-fold dose increments over the previous dose level. Dose escalation decisions were based on occurrence of DLTs in Cycle 1 and the predicted MTD from the continual reassessment model (Supplementary Fig. S1). […]

[3] = tested on: NAE-regulated transcriptional targets (ATF3, GCLM, GSR, MAG1, NQ01, SLC7A11, SRXN1, and TXNRD1); test: RT-PCR of NAE-regulated transcripts in whole blood; format: in vivo, human
Description: Blood samples for PD analysis were collected during Cycle 1. […] On schedule B samples were collected: at screening; on Day 1 within 1 h before dosing and 1, 2, 4, and 8 h after completion of infusion; on Day 8 within 1 h before dosing; and on Day 15 within 1 h before dosing and 1, 2, and 4 h after completion of infusion. Gene expression of NAE-regulated transcriptional targets (ATF3, GCLM, GSR, MAG1, NQ01, SLC7A11, SRXN1, and TXNRD1) in whole blood was analyzed by reverse-transcription polymerase chain reaction (RT-PCR). Raw data were transformed prior to calculation of percent change and assumptions were made for missing data, as previously described. Summary statistics were generated for the percent change from baseline at each time point for each gene.

[4] = tested on: pevonedistat–NEDD8 adduct, Cdt1 and Nrf-2; test: Immunohistochemistry of paired tumor biopsies; format: in vivo, human
Description: For patients in the MTD expansion cohort, paired tumor biopsies were obtained at screening and at 3–6 h post-dosing on Day 4 (schedule A) or Day 8 (schedule B). […] Immunohistochemical analyses were performed at Millennium Pharmaceuticals, Inc. as previously described.

[5] = tested on: patients with metastatic melanoma; test: Antitumor activity, response by modified RECIST v1.1; format: in vivo, human
Description: as §2

[6] = tested on: patients with multiple myeloma or lymphoma; set-up: method as in PMID 26561559; conditions: cited from earlier work
[7] = tested on: patients with solid tumors; set-up: method as in PMID 26423795; conditions: cited from earlier work
[8] = tested on: patients with relapsed/refractory AML or MDS; set-up: method as in PMID 25733005; conditions: cited from earlier work; for MTD: single-agent
[9] = tested on: treatment-naïve elderly patients with AML; set-up: method as in earlier work; conditions: in combination with azacitidine, Days 1, 3, and 5 schedule; cited from earlier work
[10] = tested on: NAE; set-up: method as in PMID 21779466, PMID 15688063, PMID 19360080, PMID 23416079, PMID 24853380; conditions: NAE inhibition; cited from earlier work
[11] = clinical; conditions: human, in vivo
Description: (§3) Blood samples (3 mL) for PK analysis were collected during Cycle 1. On schedule A, serial samples were collected within 1 h before dosing on Day 1, immediately after completion of infusion (immediately before switching off infusion pump), and at 1, 4, and 7 h after completion of infusion. Samples were also collected on Days 2 and 3; on Days 4 and 8 (immediately before dosing and immediately after completion of infusion); on Day 11 immediately before dosing, immediately after completion of infusion, and at 4 and 7 h after completion of infusion; and on Day 15. On schedule B, blood samples were collected within 1 h before dosing on Day 1, immediately after completion of infusion (immediately before switching off infusion pump), and at 1, 2, 4, and 7 h after completion of infusion. Samples were also collected on Days 2, 3, and 4; and on Days 8 and 15 (immediately before dosing and immediately after completion of infusion). Samples were analyzed at Tandem Labs (West Trenton, NJ) for pevonedistat plasma concentrations using Good Laboratory Practice-validated liquid chromatography/tandem mass spectrometry methods. The dynamic ranges were 1–500 ng/mL for the low-range assay and 75–7500 ng/mL for the high-range assay.
(§4) The PK-evaluable population included all patients who received all protocol-defined doses in Cycle 1, had sufficient plasma concentration–time data to reliably estimate PK parameters, and had not received any excluded concomitant medications per protocol. Individual pevonedistat plasma concentration–time data were analyzed by noncompartmental methods using WinNonlin software (Version 6.2, Pharsight Corporation, Cary, NC). Plasma concentrations below the lower limit of quantification were set to zero for analysis.

[12] = Plasma pharmacokinetics (LC/MS/MS, noncompartmental analysis); conditions: for Dose proportionality of plasma exposure: 50–278 mg/m^2, after Day 1 intravenous infusion; for Disposition profile following completion of the intravenous infusion: schedules A and B
Description: as §3, §4

[13] = Cycle 1, Day 1, 7 h post-dose, Schedule A MTD, 209 mg/m^2 (n=11)
[14] = Cycle 1, Day 1, 8 h post-dose, Schedule B, 157 mg/m^2 (n=8)
[15] = the patient with partial response, 209 mg/m^2 schedule A
[16] = nine melanoma patients in the first-in-human phase I study
[17] = human, plasma, intravenous, 157 mg/m^2

SMILES: NS(=O)(=O)OC[C@@H]1C[C@@H](n2ccc3c(N[C@H]4CCc5ccccc54)ncnc32)C[C@@H]1O [pevonedistat, Pevonedistat]
- On-study death ([1]; Schedule A (n = 26)): 2 (8) n (%)
- On-study death ([1]; Schedule B (n = 11)): 1 (9) n (%)
- Severity of peripheral neuropathy ([1]; human, in vivo): mild (grade 1)
- Patients who experienced acute organ failure toxicities ([1]; in vivo): Two
- Tolerability at the MTD ([1]; schedule A, 209 mg/m^2): generally well tolerated
- Drug-related death ([1]; schedule A, 209 mg/m^2, one patient after one dose, Day 9 of Cycle 1): grade 5 acute renal failure; also recorded: died due to drug-related acute renal failure
- Maximum tolerated dose (MTD) [2]: 209 mg/m^2
- ATF3 transcript, median % change from baseline (range) [3, 13]: 88.6 (–38.6 to 385.0) %
- GCLM transcript, median % change from baseline (range) [3, 13]: 105.3 (–33.0 to 234.2) %
- GSR transcript, median % change from baseline (range) [3, 13]: 196.6 (–54.2 to 447.6) %
- MAG1 transcript, median % change from baseline (range) [3, 13]: 99.1 (–22.4 to 236.4) %
- NQ01 transcript, median % change from baseline (range) [3, 13]: 681.2 (–49.7 to 2740.6) %
- SLC7A11 transcript, median % change from baseline (range) [3, 13]: 837.0 (–65.3 to 3873.9) %
- SRXN1 transcript, median % change from baseline (range) [3, 13]: 142.0 (–50.5 to 340.0) %
- TXNRD1 transcript, median % change from baseline (range) [3, 13]: 220.7 (–41.7 to 347.7) %
- ATF3 transcript, median % change from baseline (range) [3, 14]: 260 (30.8 to 541.4) %
- GCLM transcript, median % change from baseline (range) [3, 14]: 65.4 (20.0–108.0) %
- GSR transcript, median % change from baseline (range) [3, 14]: 176.2 (93.2–216.6) %
- MAG1 transcript, median % change from baseline (range) [3, 14]: 81.7 ( 39.0–158.2) %
- NQ01 transcript, median % change from baseline (range) [3, 14]: 833.8 (330.6–2202.3) %
- SLC7A11 transcript, median % change from baseline (range) [3, 14]: 727.4 (184.7 to 1660.0) %
- SRXN1 transcript, median % change from baseline (range) [3, 14]: 81.5 (43.3 to 185.3) %
- TXNRD1 transcript, median % change from baseline (range) [3, 14]: 156.9 (87.8 to 234.9) %
- Change of all eight NAE-regulated gene transcripts post-treatment ([3]; MTD on schedule A and schedule B): increases in NAE-regulated transcripts post-treatment; also recorded: significantly increased
- Doses at which induction of all NAE-regulated transcriptional targets was observed ([3]; data not shown): ≥ 50 mg/m^2
- pevonedistat–NEDD8 adduct in post-dose tumor biopsy samples ([4]; 3–6 h after Cycle 1, Day 4 dose, 3 patients, Schedule A MTD expansion cohort): positive
- Immunohistochemical expression of Cdt1 and Nrf-2 in tumor ([4]; one patient with adequate biopsy tissue, schedule A MTD): increased post-treatment
- Best response: progressive disease ([5]; 31 response-evaluable patients): 15 (48 %) patients
- Best response: stable disease ([5]; 31 response-evaluable patients, schedule A and B): 15 patients and 15 (48 %) patients
- Patients with stable disease lasting 6.5 months or longer ([5]; among the 15 patients who achieved stable disease): 4 patients
- Duration of response [5, 15]: 1.55 months
- Overall duration of stable disease or better [5, 15]: 4.4 months
- MTD ([6]; Day 1, 2, 8, and 9 schedule): 110 mg/m^2
- MTD ([6]; Days 1, 4, 8, and 11 of 21-day cycles): 196 mg/m^2
- DLTs [6]: febrile neutropenia, AST elevation, muscle cramps, and thrombocytopenia
- MTD ([7]; Days 1–5 and Days 1, 3, and 5 schedules): 50–67 mg/m^2
- DLTs [7]: ALT elevation, AST elevation, and hyperbilirubinemia
- Duration of stable disease in another patient [7, 16]: 6 months
- Patients achieving a partial response [7, 16]: one
- DLTs [8]: multi-organ failure, reversible ALT elevation, AST/ALT elevation, cardiac failure, and acute renal failure
- MTD ([8]; Days 1, 3, and 5 of 21-day cycles): 50/59
- MTD ([8]; Days 1, 4, 8, and 11 schedule): 83 mg/m^2
- MTD [9]: 20 mg/m^2
- Fraction of the proteins regulated by the UPS whose proteasomal degradation is prevented [10]: ~ 20%
- Tmax [11]: 1 h
- clearance [11]: 635 mL/min
- half-life [11]: 10.4 h
- Dose proportionality of plasma exposure [12]: increased approximately proportionally with dose
- Dose proportionality of plasma exposure ([12]; listed as Pevonedistat): approximately dose-proportional
- AUC(0-inf) [12, 17]: 8930 ng·h/mL
- AUC(0-t) [12, 17]: 7250 ng·h/mL
- Cmax [12, 17]: 2450 ng/mL
- Tmax [12, 17]: 1 h
- clearance [12, 17]: 647 mL/min
- half-life [12, 17]: 10.1 h
- half-life ([12]; human, plasma, iv): ~10 h
- Disposition profile following completion of the intravenous infusion [12]: biphasic disposition phase
- Disposition profile following completion of the intravenous infusion ([12]; listed as Pevonedistat): biphasic disposition profile
